Several values for one entry are separate records, joined by “and”; a condition that tells them apart may be missing. Equal values may be shown once.
What was measured:
[1] = target: T1, synthetic thick filaments formed from purified full-length bovine β-cardiac myosin (Bos taurus, UniProt Q9BE39); test: mant-ATP chase single nucleotide turnover, synthetic thick filaments; format: biochemical; conditions: for Representative Traces (mant-ATP chase, fluorescence signal over time): Figure 3b
T1 construct: diluting full-length bovine cardiac myosin stock into assay buffer; from tissue; host or cells: bovine cardiac muscle (the text says isolated/purified and describes no preparation)
T1 sequence (Q9BE39 whole entry): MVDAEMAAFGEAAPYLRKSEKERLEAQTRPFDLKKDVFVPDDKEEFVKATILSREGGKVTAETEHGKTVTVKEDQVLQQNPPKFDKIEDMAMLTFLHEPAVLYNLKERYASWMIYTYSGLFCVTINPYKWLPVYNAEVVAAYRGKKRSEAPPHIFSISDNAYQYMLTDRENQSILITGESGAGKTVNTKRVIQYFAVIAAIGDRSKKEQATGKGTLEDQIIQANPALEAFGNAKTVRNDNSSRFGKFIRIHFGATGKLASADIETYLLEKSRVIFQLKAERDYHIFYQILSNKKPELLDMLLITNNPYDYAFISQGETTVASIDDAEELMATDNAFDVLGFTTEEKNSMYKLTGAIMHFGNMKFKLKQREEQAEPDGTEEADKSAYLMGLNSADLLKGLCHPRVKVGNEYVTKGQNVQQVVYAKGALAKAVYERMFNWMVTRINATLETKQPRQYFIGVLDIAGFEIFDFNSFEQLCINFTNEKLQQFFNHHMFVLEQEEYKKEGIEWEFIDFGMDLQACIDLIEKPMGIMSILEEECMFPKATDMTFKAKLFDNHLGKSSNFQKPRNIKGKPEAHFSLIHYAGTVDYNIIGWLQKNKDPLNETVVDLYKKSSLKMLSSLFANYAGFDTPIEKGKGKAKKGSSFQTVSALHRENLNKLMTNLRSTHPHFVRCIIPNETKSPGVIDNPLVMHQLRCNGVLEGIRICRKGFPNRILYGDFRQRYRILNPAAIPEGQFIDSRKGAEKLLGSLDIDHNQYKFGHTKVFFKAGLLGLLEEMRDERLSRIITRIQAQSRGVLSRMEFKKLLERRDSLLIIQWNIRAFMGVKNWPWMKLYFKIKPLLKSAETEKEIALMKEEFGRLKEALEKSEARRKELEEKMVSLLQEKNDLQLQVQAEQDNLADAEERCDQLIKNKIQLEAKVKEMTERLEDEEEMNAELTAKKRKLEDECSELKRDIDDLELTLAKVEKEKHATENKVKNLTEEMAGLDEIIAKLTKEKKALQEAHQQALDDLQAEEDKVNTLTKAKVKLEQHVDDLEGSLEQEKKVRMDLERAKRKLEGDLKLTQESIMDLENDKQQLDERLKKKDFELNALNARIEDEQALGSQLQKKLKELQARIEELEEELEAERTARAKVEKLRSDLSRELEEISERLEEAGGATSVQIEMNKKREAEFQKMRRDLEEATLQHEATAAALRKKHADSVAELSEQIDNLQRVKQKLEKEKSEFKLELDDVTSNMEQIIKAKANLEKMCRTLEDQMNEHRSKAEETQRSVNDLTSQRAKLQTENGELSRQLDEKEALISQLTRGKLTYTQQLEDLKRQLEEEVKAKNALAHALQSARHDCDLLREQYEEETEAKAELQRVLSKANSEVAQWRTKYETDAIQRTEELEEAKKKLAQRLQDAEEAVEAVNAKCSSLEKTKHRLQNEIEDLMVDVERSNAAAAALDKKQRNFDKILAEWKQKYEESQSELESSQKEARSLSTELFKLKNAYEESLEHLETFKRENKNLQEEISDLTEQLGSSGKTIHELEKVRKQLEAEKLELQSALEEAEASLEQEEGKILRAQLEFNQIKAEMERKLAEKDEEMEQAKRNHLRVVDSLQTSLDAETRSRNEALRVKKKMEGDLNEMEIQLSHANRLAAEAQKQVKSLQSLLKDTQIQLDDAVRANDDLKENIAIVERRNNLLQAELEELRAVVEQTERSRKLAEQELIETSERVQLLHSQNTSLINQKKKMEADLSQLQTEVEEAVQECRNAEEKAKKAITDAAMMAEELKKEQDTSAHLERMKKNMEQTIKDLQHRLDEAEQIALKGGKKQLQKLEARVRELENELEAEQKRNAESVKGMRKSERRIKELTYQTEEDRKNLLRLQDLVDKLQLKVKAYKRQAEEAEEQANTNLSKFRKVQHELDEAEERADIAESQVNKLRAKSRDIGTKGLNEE
T1 sequence (P85100 whole entry partner): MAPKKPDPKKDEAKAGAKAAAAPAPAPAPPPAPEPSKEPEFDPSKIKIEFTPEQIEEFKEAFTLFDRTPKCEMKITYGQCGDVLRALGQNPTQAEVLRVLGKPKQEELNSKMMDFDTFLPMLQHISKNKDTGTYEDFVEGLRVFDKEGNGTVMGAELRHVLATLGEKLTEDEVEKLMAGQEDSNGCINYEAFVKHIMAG
T1 sequence (Q3SZE5 whole entry partner): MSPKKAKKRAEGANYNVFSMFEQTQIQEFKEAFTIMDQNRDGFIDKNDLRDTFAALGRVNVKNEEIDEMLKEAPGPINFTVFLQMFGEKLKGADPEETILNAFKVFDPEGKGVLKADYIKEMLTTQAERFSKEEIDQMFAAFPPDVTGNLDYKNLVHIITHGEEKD
Text: We used systems of increasing complexity ranging from the isolated cardiac myosin motor domains (Fig. 3a) to synthetic thick filaments formed from purified full-length bovine cardiac myosin (Fig. 3b) and bovine cardiac myofibrils as substrates in the chase assays (Fig. 3c). In contrast to the isolated myosin motors, synthetic thick filaments contain two myosin head domains per molecule connected via their coiled-coil tail.
Synthetic thick filaments were freshly prepared by diluting full-length bovine cardiac myosin stock into assay buffer (composition in mmol L^−1: 15 PIPES pH 7, 5 MgCl2, 1 DTT) and incubation on ice for 2 h. Bovine myosin S1 and synthetic thick filament concentrations were adjusted to 0.4 μmol L^−1 with assay buffer and 40 μL aliquoted into individual wells of a black 384-well plate (Greiner). Mant-ATP (JenaBioscience) was added to each well to a final concentration of 0.4 μmol L^−1 using an automated injector unit in a ClarioStar Plate Reader (BMG LabTech) and the system was allowed to age for 1 min. The chase phase was started by adding a final concentration of 2 mmol L^−1 ATP using a second automated injector unit. Fluorescence intensity from each well was constantly measured for 15 min every 1 sec at 25 °C with the following settings: excitation at 360 nm with a 20 nm bandwidth and emission at 450 nm with a 20 nm bandwidth. For experiments with cardiac myofibrils the concentration was adjusted to 1 mg m L^−1, and the mant-ATP and ATP concentrations were increased to 20 μmol L^−1 and 20 mmol L^−1, respectively.

[2] = target: bovine cardiac myosin S1 (Bos taurus, UniProt Q9BE39); test: mant-ATP chase single nucleotide turnover, myosin S1; conditions: for Representative Traces (mant-ATP chase, normalised signal): representative trace, sheet Figure 3a;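 for all read-outs here: 0.4 µM S1 preloaded with equimolar mant-ATP, chased by 2 mM ATP, mant fluorescence (ex 360, em 450 nm) read each second over 15 min at 25 °C, biexponential fit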
bovine cardiac myosin S1, sequence (Q9BE39 85-778 limits assumed): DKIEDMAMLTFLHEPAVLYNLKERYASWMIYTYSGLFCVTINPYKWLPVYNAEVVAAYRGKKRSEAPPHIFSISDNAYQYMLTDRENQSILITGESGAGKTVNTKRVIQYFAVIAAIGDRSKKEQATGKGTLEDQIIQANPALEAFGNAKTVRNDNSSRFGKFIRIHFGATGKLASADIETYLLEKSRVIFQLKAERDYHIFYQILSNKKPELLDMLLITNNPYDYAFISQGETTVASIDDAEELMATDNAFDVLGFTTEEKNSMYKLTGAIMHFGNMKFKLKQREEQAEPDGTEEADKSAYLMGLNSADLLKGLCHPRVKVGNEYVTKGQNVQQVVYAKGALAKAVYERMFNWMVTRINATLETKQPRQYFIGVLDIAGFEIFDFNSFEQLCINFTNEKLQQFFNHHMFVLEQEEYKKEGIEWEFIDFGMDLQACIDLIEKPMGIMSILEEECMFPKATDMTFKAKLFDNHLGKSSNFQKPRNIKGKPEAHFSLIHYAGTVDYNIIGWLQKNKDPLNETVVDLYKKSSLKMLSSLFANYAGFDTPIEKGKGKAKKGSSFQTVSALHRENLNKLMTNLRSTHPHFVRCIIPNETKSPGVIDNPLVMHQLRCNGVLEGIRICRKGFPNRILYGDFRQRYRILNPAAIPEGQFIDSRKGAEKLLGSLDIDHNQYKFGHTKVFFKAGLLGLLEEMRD
bovine cardiac myosin S1, sequence (P85100 whole entry partner): as the sequence (P85100 whole entry partner) above
Text: Chase of mant-ATP loaded cardiac myosin S1 with ATP leads to a decrease in the mant fluorescence intensity which is best described by a bi-exponential decay function with an initial fast phase followed by a second slower phase, corresponding to the so-called disordered (DRX) and super-relaxed state (SRX) of myosin, respectively.

[3] = Synthetic Myosin Filaments, individual replicates
[4] = Beta-cardiac myosin S1, individual replicates

effect on the rate of the fast DRX phase [1]: no effect | Representative Traces (mant-ATP chase, fluorescence signal over time) ([1]; t = 796 s): 0.1167 | Representative Traces (mant-ATP chase, fluorescence signal over time) ([1]; t = 797 s): 0.08985 | Representative Traces (mant-ATP chase, fluorescence signal over time) ([1]; t = 798 s): 0.08985 | kslow ([1]; control 0.0046 ± 0.0007): 0.0033 ± 0.0007 s⁻¹ | kfast ([1]; control […]): 0.0593 ± 0.0188 s⁻¹ | effect on the rate of the fast DRX phase [2]: no effect | kslow ([2]; 2 μmol L^-1 Mavacamten or 20 μmol L^-1 F10, control 0.0058 ± 0.0010): 0.0035 ± 0.0002 s⁻¹ | Representative Traces, normalised fluorescence ([2]; t 396 s): 0.2925 | Representative Traces, normalised fluorescence ([2]; t 397 s): 0.3426 | Representative Traces, normalised fluorescence ([2]; t 398 s): 0.3062 | Representative Traces, normalised fluorescence ([2]; t 399 s): 0.3254 | Representative Traces, normalised fluorescence ([2]; t 400 s): 0.3408 | Representative Traces, normalised fluorescence ([2]; t 401 s): 0.3177 | Representative Traces, normalised fluorescence ([2]; t 402 s): 0.2999 | Representative Traces, normalised fluorescence ([2]; t 403 s): 0.3192 | Representative Traces, normalised fluorescence ([2]; t 404 s): 0.3277 | Representative Traces, normalised fluorescence ([2]; t 405 s): 0.3461 | Representative Traces, normalised fluorescence ([2]; t 406 s): 0.3076 | Representative Traces, normalised fluorescence ([2]; t 407 s): 0.3064 | Representative Traces, normalised fluorescence ([2]; t 408 s): 0.3235 | Representative Traces, normalised fluorescence ([2]; t 409 s): 0.3324 | Representative Traces, normalised fluorescence ([2]; t 411 s): 0.3126 | Representative Traces, normalised fluorescence ([2]; t 412 s): 0.2865 | Representative Traces, normalised fluorescence ([2]; t 413 s): 0.2993 | Representative Traces, normalised fluorescence ([2]; t 414 s): 0.3256 | Representative Traces, normalised fluorescence ([2]; t 415 s): 0.2791 | Representative Traces, normalised fluorescence ([2]; t 416 s): 0.3071 | Representative Traces, normalised fluorescence ([2]; t 417 s): 0.3285 | Representative Traces, normalised fluorescence ([2]; t 418 s): 0.3567 | Representative Traces, normalised fluorescence ([2]; t 419 s): 0.2951 | Representative Traces, normalised fluorescence ([2]; t 420 s): 0.2958 | Representative Traces, normalised fluorescence ([2]; t 421 s): 0.2771 | Representative Traces, normalised fluorescence ([2]; t 422 s): 0.3283 | Representative Traces, normalised fluorescence ([2]; t 423 s): 0.3329 | Representative Traces, normalised fluorescence ([2]; t 424 s): 0.3402 | Representative Traces, normalised fluorescence ([2]; t 425 s): 0.3675 | Representative Traces, normalised fluorescence ([2]; t 426 s): 0.3241 | Representative Traces, normalised fluorescence ([2]; t 427 s): 0.3018 | Representative Traces, normalised fluorescence ([2]; t 429 s): 0.3105 | Representative Traces, normalised fluorescence ([2]; t 430 s): 0.2835 | Representative Traces, normalised fluorescence ([2]; t 431 s): 0.3652 | Representative Traces, normalised fluorescence ([2]; t 432 s): 0.276 | Representative Traces, normalised fluorescence ([2]; t 433 s): 0.3282 | Representative Traces, normalised fluorescence ([2]; t 434 s): 0.3046 | Representative Traces, normalised fluorescence ([2]; t 436 s): 0.327 | Representative Traces, normalised fluorescence ([2]; t 438 s): 0.2936 | Representative Traces, normalised fluorescence ([2]; t 439 s): 0.2402 | Representative Traces, normalised fluorescence ([2]; t 440 s): 0.312 | Representative Traces, normalised fluorescence ([2]; t 442 s): 0.3011 | Representative Traces, normalised fluorescence ([2]; t 443 s): 0.3298 | Representative Traces, normalised fluorescence ([2]; t 444 s): 0.251 | Representative Traces, normalised fluorescence ([2]; t 445 s): 0.2991 | Representative Traces, normalised fluorescence ([2]; t 448 s): 0.3473 | Representative Traces, normalised fluorescence ([2]; t 449 s): 0.3057 | Representative Traces, normalised fluorescence ([2]; t 450 s): 0.2886 | Representative Traces, normalised fluorescence ([2]; t 451 s): 0.2859 | Representative Traces, normalised fluorescence ([2]; t 452 s): 0.29 | Representative Traces, normalised fluorescence ([2]; t 453 s): 0.2756 | Representative Traces, normalised fluorescence ([2]; t 454 s): 0.2575 | Representative Traces, normalised fluorescence ([2]; t 455 s): 0.3029 | Representative Traces, normalised fluorescence ([2]; t 457 s): 0.3415 | Representative Traces, normalised fluorescence ([2]; t 458 s): 0.2853 | Representative Traces, normalised fluorescence ([2]; t 459 s): 0.3237 | Representative Traces, normalised fluorescence ([2]; t 460 s): 0.3029 | Representative Traces, normalised fluorescence ([2]; t 461 s): 0.3217 | Representative Traces, normalised fluorescence ([2]; t 462 s): 0.3036 | Representative Traces, normalised fluorescence ([2]; t 463 s): 0.347 | Representative Traces, normalised fluorescence ([2]; t 464 s): 0.2897 | Representative Traces, normalised fluorescence ([2]; t 465 s): 0.2531 | Representative Traces, normalised fluorescence ([2]; t 466 s): 0.2878 | Representative Traces, normalised fluorescence ([2]; t 467 s): 0.2939 | Representative Traces, normalised fluorescence ([2]; t 468 s): 0.2524 | Representative Traces, normalised fluorescence ([2]; t 469 s): 0.272 | Representative Traces, normalised fluorescence ([2]; t 470 s): 0.2865 | Representative Traces, normalised fluorescence ([2]; t 471 s): 0.2593 | Representative Traces, normalised fluorescence ([2]; t 472 s): 0.2417 | Representative Traces, normalised fluorescence ([2]; t 473 s): 0.3026 | Representative Traces, normalised fluorescence ([2]; t 474 s): 0.305 | Representative Traces, normalised fluorescence ([2]; t 475 s): 0.2893 | Representative Traces, normalised fluorescence ([2]; t 476 s): 0.2207 | Representative Traces, normalised fluorescence ([2]; t 477 s): 0.2579 | Representative Traces, normalised fluorescence ([2]; t 479 s): 0.2507 | Representative Traces, normalised fluorescence ([2]; t 481 s): 0.3039 | Representative Traces, normalised fluorescence ([2]; t 482 s): 0.2976 | Representative Traces, normalised fluorescence ([2]; t 483 s): 0.3557 | Representative Traces, normalised fluorescence ([2]; t 484 s): 0.2911 | Representative Traces, normalised fluorescence ([2]; t 485 s): 0.3282 | Representative Traces, normalised fluorescence ([2]; t 486 s): 0.3063 | Representative Traces, normalised fluorescence ([2]; t 487 s): 0.301 | Representative Traces, normalised fluorescence ([2]; t 489 s): 0.3448 | Representative Traces, normalised fluorescence ([2]; t 490 s): 0.2903 | Representative Traces, normalised fluorescence ([2]; t 491 s): 0.2724 | Representative Traces, normalised fluorescence ([2]; t 492 s): 0.2681 | Representative Traces, normalised fluorescence ([2]; t 493 s): 0.2418 | Representative Traces, normalised fluorescence ([2]; t 494 s): 0.2422 | Representative Traces, normalised fluorescence ([2]; t 495 s): 0.2809 | Representative Traces, normalised fluorescence ([2]; t 496 s): 0.2322 | Representative Traces, normalised fluorescence ([2]; t 498 s): 0.212 | Representative Traces, normalised fluorescence ([2]; t 499 s): 0.2038 | Representative Traces, normalised fluorescence ([2]; t 500 s): 0.275 | Representative Traces, normalised fluorescence ([2]; t 501 s): 0.2793 | Representative Traces, normalised fluorescence ([2]; t 502 s): 0.2398 | Representative Traces, normalised fluorescence ([2]; t 503 s): 0.2758 | Representative Traces, normalised fluorescence ([2]; t 504 s): 0.2833 | Representative Traces, normalised fluorescence ([2]; t 505 s): 0.2324 | Representative Traces, normalised fluorescence ([2]; t 506 s): 0.2749 | Representative Traces, normalised fluorescence ([2]; t 507 s): 0.3022 | Representative Traces (mant-ATP chase, normalised signal) ([2]; t = 796 s): 0.1415 | Representative Traces (mant-ATP chase, normalised signal) ([2]; t = 797 s): 0.08266
SMILES: CC(C)n1c(=O)cc(N[C@@H](C)c2ccccc2)[nH]c1=O [Mavacamten]
Bar graph (Figure 3b, mant-ATP chase) ([1]; Figure 3b source data, individual replicate values): 77.58 and 71.76 and 78.3 and 63.78 and 62.87 and 75.77 and 68.24 | kfast [1, 3]: 0.1528 s⁻¹ and 0.02969 s⁻¹ and 0.09681 s⁻¹ and 0.02631 s⁻¹ and 0.06313 s⁻¹ and 0.02802 s⁻¹ | kslow [1, 3]: 0.001307 s⁻¹ and 0.001384 s⁻¹ and 0.002093 s⁻¹ and 0.003633 s⁻¹ and 0.005541 s⁻¹ and 0.004994 s⁻¹ | slow phase [1, 3]: 71.76% and 78.3% and 63.78% and 62.87% and 75.77% and 68.24% | kfast [2, 4]: 0.009858 s⁻¹ and 0.01039 s⁻¹ and 0.07197 s⁻¹ and 0.03575 s⁻¹ and 0.01101 s⁻¹ and 0.01169 s⁻¹ | kslow [2, 4]: 0.00364 s⁻¹ and 0.002861 s⁻¹ and 0.004023 s⁻¹ and 0.004095 s⁻¹ and 0.003004 s⁻¹ and 0.003638 s⁻¹ | slow phase [2, 4]: 82.01% and 63.89% and 87.3% and 56.77% and 56.99% and 79.26%
